Measured values reported in ChEMBL document CHEMBL4393656, “Cationic biaryl 1,2,3-triazolyl peptidomimetic amphiphiles targeting Clostridioides (Clostridium) difficile: Synthesis, antibacterial evaluation and an in vivo C. difficile infection model” (Eur J Med Chem, 2019).
The source made the active and inactive calls. The rule behind the calls is not given here.

Assays:
[1] = test system: Escherichia coli; experiment: Induction of cytoplasmic membrane depolarization in Escherichia coli NCTC 10418 at 4 ug/ml by DiSC3-5 dye based fluorescence method; type: organism-based
[2] = test system: Escherichia coli; experiment: Induction of cytoplasmic membrane permeabilization in Escherichia coli NCTC 10418 at 4 ug/ml by propidium iodide staining based fluorescence method; type: organism-based
[3] = test system: Staphylococcus aureus; experiment: Growth inhibition of Staphylococcus aureus ATCC 29213 incubated in MHB broth for 24 hrs; type: organism-based
[4] = test system: Enterococcus faecalis; experiment: Growth inhibition of Enterococcus faecalis ATCC 29212 incubated in MHB broth for 24 hrs; type: organism-based
[5] = test system: Streptococcus pneumoniae; experiment: Growth inhibition of Streptococcus pneumoniae ATCC 49619 incubated in MHB medium with lysed horse blood and 5% CO2 for 24 hrs; type: organism-based
[6] = test system: Clostridioides difficile; experiment: Antibacterial activity against Clostridium difficile ATCC 700057 incubated for 2 to 4 hrs in pre-reduced brucella broth supplemented with haemin/vitamin K and further incubation in anaerobic condition for 48 hrs; type: functional
[7] = test system: Clostridioides difficile; experiment: Antibacterial activity against Clostridium difficile NSW132 RT027 incubated for 2 to 4 hrs in pre-reduced brucella broth supplemented with haemin/vitamin K and further incubation in anaerobic condition for 48 hrs; type: functional
[8] = test system: Escherichia coli; experiment: Growth inhibition of Escherichia coli ATCC 25922 incubated for 18 hrs; type: organism-based
[9] = test system: Klebsiella pneumoniae; experiment: Growth inhibition of Klebsiella pneumoniae ATCC 700603 incubated for 18 hrs; type: organism-based
[10] = test system: Acinetobacter baumannii; experiment: Growth inhibition of Acinetobacter baumannii ATCC 19606 incubated for 18 hrs without shaking by absorbance based monochromator plate reader analysis; type: organism-based, ATCC 19606 = CIP 70.34 = JCM 6841; details: in vitro
[11] = test system: Pseudomonas aeruginosa; experiment: Growth inhibition of Pseudomonas aeruginosa ATCC 27853 incubated for 18 hrs; type: organism-based
[12] = test system: Staphylococcus aureus; experiment: Growth inhibition of methicillin-resistant Staphylococcus aureus ATCC 43300 incubated for 18 hrs; type: organism-based
[13] = Cytotoxicity against HEK293 cells assessed as decrease in cell viability after 20 hrs by resazurin dye-based fluorescence assay; details: human
[14] = Haemolytic activity in sheep erythrocytes assessed as induction of haemolysis at 5 ug/ml incubated for 2 hrs relative to control; type: cell-based, Ovis aries, Erythrocyte; details: read-out: Activity
[15] = Haemolytic activity in sheep erythrocytes assessed as induction of haemolysis at 50 ug/ml incubated for 2 hrs relative to control; type: cell-based, Ovis aries, Erythrocyte; details: read-out: Activity
[16] = Aqueous solubility of the DMSO-dissolved compound in >200 uL water at 5 mg; type: physicochemical; details: buffer
[17] = test system: Clostridioides difficile; experiment: (§1) Antibacterial activity against Clostridium difficile ribotype 027 M7404 spores infected in antibiotic cocktail-induced CDI C57BL/6J mouse model assessed as decrease in diarrhea at 100 mg/kg administered via oral gavage for every 12 hrs starting from 6 hrs post-infection and measured at 24 hrs post infection; type: functional, organism-based; details: genomovar ribotype 027 M7404
[18] = test system: Clostridioides difficile; experiment: as §1, with “assessed as survival rate at 100” for “assessed as decrease in diarrhea at 100”, “post infection (reference value: 0%)” for “post infection”; type: functional, genomovar ribotype 027 M7404
[19] = Drug accumulation in blood of antibiotic cocktail-induced CDI C57BL/6J mouse model infected with Clostridium difficile ribotype 027 M7404 spores at 100 mg/kg administered via oral gavage for every 12 hrs starting from 6 hrs post-infection by LRMS analysis; type: ADME, organism-based; details: in vivo
[20] = Drug accumulation in feces of antibiotic cocktail-induced CDI C57BL/6J mouse model infected with Clostridium difficile ribotype 027 M7404 spores at 100 mg/kg administered via oral gavage for every 12 hrs starting from 6 hrs post-infection by LRMS analysis; type: ADME, organism-based; details: in vivo
[21] = Drug localization in blood of C57BL/6J mouse measured after 2 hr by LRMS analysis; type: ADME, tissue-based
[22] = test system: Clostridioides difficile; experiment: as §1, with “protection against bacterial infection” for “decrease in diarrhea”, “2 days” for “24 hrs”; type: functional, organism-based; details: genomovar ribotype 027 M7404
[23] = test system: Clostridioides difficile; experiment: as §1, with “weight loss” for “diarrhea”; type: functional, organism-based; details: genomovar ribotype 027 M7404
[24] = test system: Clostridioides difficile; experiment: as §1, with “decrease in fecal spore load at 100” for “decrease in diarrhea at 100”, “post infection by heat shock based plating method” for “post infection”; type: functional, organism-based; details: genomovar ribotype 027 M7404
[25] = test system: Staphylococcus aureus; experiment: Induction of cytoplasmic membrane depolarization in Staphylococcus aureus ATCC 29213 at 32 ug/ml by DiSC3-5 dye based fluorescence method; type: organism-based
[26] = test system: Escherichia coli; experiment: Induction of cytoplasmic membrane depolarization in Escherichia coli NCTC 10418 at 64 ug/ml by DiSC3-5 dye based fluorescence method; type: organism-based
[27] = test system: Staphylococcus aureus; experiment: Induction of cytoplasmic membrane permeabilization in Staphylococcus aureus ATCC 29213 at 32 ug/ml by propidium iodide staining based fluorescence method relative to control
[28] = test system: Escherichia coli; experiment: Induction of cytoplasmic membrane permeabilization in Escherichia coli NCTC 10418 at 32 ug/ml by propidium iodide staining based fluorescence method; type: organism-based
[29] = test system: Staphylococcus aureus; experiment: Induction of cytoplasmic membrane permeabilization in Staphylococcus aureus ATCC 29213 at 32 ug/ml measured after 10 mins by propidium iodide staining based fluorescence method; type: organism-based
[30] = test system: Staphylococcus aureus; experiment: Induction of cytoplasmic membrane permeabilization in Staphylococcus aureus ATCC 29213 at 32 ug/ml measured after 40 mins by propidium iodide staining based fluorescence method; type: organism-based
[31] = test system: Clostridioides difficile; experiment: as §1, with “physiological appearance score” for “diarrhea”; type: functional, organism-based; details: genomovar ribotype 027 M7404
[32] = test system: Clostridioides difficile; experiment: Antibacterial activity against Clostridium difficile ribotype 027 M7404; type: functional; details: genomovar ribotype 027 M7404
[33] = Solubility of the compound in 10% DMSO solution; type: physicochemical

COLISTIN
Activity [1]: Active | Activity [2]: Active

CC(C)CCOc1ccccc1-c1ccccc1OCc1cn([C@H](CCCCN)C(=O)NCC2CCCCC2)nn1.Cl
MIC [3]: 8 µg/mL | MIC [4]: 8 µg/mL | MIC [5]: 8 µg/mL | MIC [6]: 16 µg/mL | MIC [7]: 32 µg/mL | MIC [8]: > 32 µg/mL | MIC [9]: > 32 µg/mL | MIC [10]: 32 µg/mL | MIC [11]: > 32 µg/mL | MIC [12]: 8 µg/mL | CC50 at 20 h [13]: 5.6 µg/mL | hemolysis at 2 h, 5 ug/ml [14]: 0% | hemolysis at 2 h, 50 ug/ml [15]: 98% | solubility [16]: Soluble

CC(C)CCOc1ccc2ccccc2c1-c1c(OCc2cn(C[C@@H](CCCCN)NC(=O)[C@@H](CCCNC(=N)N)NC(=O)CCc3ccccc3)nn2)ccc2ccccc12.Cl.Cl
Activity [17]: Active | MIC [6]: 8 µg/mL | Activity [18]: 50% | Drug uptake [19]: Not Active | Drug uptake [20]: Active | Drug uptake [21]: Not Active

CC(C)CCOc1ccccc1-c1ccccc1OCc1cn([C@H](CCCNC(=N)N)C(=O)NC2CCCCC2)nn1.Cl
Activity [17]: Active | Activity [22]: inactive | Activity [23]: inactive | MIC [3]: 4 µg/mL | MIC [4]: 4 µg/mL | MIC [5]: 4 µg/mL | MIC [6]: 8 µg/mL | MIC [7]: 16 µg/mL | MIC [8]: > 32 µg/mL | MIC [9]: > 32 µg/mL | MIC [10]: 32 µg/mL | MIC [11]: > 32 µg/mL | MIC [12]: 4 µg/mL | CC50 at 20 h [13]: 19.7 µg/mL | hemolysis at 2 h, 5 ug/ml [14]: 1.4% | hemolysis at 2 h, 50 ug/ml [15]: 81.8% | Activity [24]: Active | Activity [25]: Active | Activity [26]: Active | Activity [27]: >500% | Activity [28]: Active | Activity [29]: Active

CC(C)CCOc1ccccc1-c1ccccc1OCc1cn([C@H](CCCCN)C(=O)N[C@H](CCCNC(=N)N)Cn2cc(CCc3ccccc3)nn2)nn1.Cl.Cl
Activity [30]: Active | MIC [3]: 4 µg/mL | MIC [4]: 8 µg/mL | MIC [5]: 8 µg/mL | MIC [6]: 16 µg/mL | MIC [7]: 16 µg/mL | MIC [8]: 8 µg/mL | MIC [9]: 16 µg/mL | MIC [10]: 8 µg/mL | MIC [11]: 8 µg/mL | MIC [12]: 2 µg/mL | CC50 at 20 h [13]: 16.4 µg/mL | hemolysis at 2 h, 5 ug/ml [14]: 1.4% | hemolysis at 2 h, 50 ug/ml [15]: 12.6% | Activity [25]: Active | Activity [26]: Active | Activity [27]: >500% | Activity [28]: Active

CC(C)CCOc1ccc2ccccc2c1-c1c(OCC(=O)N[C@H](CCCNC(=N)N)C(=O)NCc2ccccc2)ccc2ccccc12.Cl
Activity [17]: inactive | Activity [22]: inactive | Activity [23]: inactive | MIC [3]: 2 µg/mL | MIC [4]: 2 µg/mL | MIC [5]: 2 µg/mL | MIC [6]: 8 µg/mL | MIC [7]: 8 µg/mL | MIC [8]: > 32 µg/mL | MIC [9]: > 32 µg/mL | MIC [10]: > 32 µg/mL | MIC [11]: > 32 µg/mL | MIC [12]: 4 µg/mL | CC50 at 20 h [13]: > 32 µg/mL | hemolysis at 2 h, 5 ug/ml [14]: 0.3% | hemolysis at 2 h, 50 ug/ml [15]: 100% | Activity [31]: inactive | MIC [32]: 2 µg/mL

CC(C)CCOc1ccc2ccccc2c1-c1c(OCC(=O)N[C@H](CCCNC(=N)N)Cn2cc(-c3ccccc3)nn2)ccc2ccccc12.Cl
MIC [6]: 8 µg/mL | hemolysis at 2 h, 50 ug/ml [15]: 86% | solubility [33]: Insoluble
